In EPA's CvTdb concentration-time database:

Key:
Rat [1] = assay: concentration in plasma after dosing; conditions: 6 h; dosed: 2-Methyltetrahydrofuran; 40 mg/kg; iv; Male; Harlan Sprague Dawley
Rat [2] = assay: concentration in brain after dosing; conditions: 7 min; dosed: 2-Methyltetrahydrofuran; 40 mg/kg; iv; Male; Harlan Sprague Dawley
Rat [3] = assay: concentration in plasma after dosing; conditions: 2 min; dosed: 2-Methyltetrahydrofuran; 40 mg/kg; iv; Male; Harlan Sprague Dawley
Rat [4] = assay: concentration in brain after dosing; conditions: 2 h; dosed: 2-Methyltetrahydrofuran; 40 mg/kg; iv; Male; Harlan Sprague Dawley
Rat [5] = assay: concentration in brain after dosing; conditions: 1.5 h; dosed: 2-Methyltetrahydrofuran; 40 mg/kg; iv; Male; Harlan Sprague Dawley
Rat [6] = assay: concentration in plasma after dosing; conditions: 2 h; dosed: 2-Methyltetrahydrofuran; 40 mg/kg; iv; Male; Harlan Sprague Dawley
Rat [7] = assay: concentration in plasma after dosing; conditions: dosed: Fluorotelomer alcohol 8+2, 12 mg/kg, oral, Male, Harlan Sprague Dawley
Rat [8] = assay: concentration in brain after dosing; conditions: 1 h; dosed: Fluorotelomer alcohol 8+2; 24 mg/kg; oral; Male; Harlan Sprague Dawley
Rat [9] = assay: concentration in liver after dosing; conditions: 12 h; dosed: Fluorotelomer alcohol 8+2; 80 mg/kg; oral; Female; Harlan Sprague Dawley
Rat [10] = assay: concentration in brain after dosing; conditions: 1 h; dosed: Fluorotelomer alcohol 8+2; 80 mg/kg; oral; Female; Harlan Sprague Dawley
Rat [11] = assay: concentration in plasma after dosing; conditions: dosed: 678-39-7, 12 mg/kg, iv, Male, F344
Rat [12] = assay: concentration in plasma after dosing; conditions: 0.5 h; dosed: Gemfibrozil; 50 mg/kg; oral; Male; Sprague-Dawley
Rat [13] = assay: concentration in plasma after dosing; conditions: 24 h; dosed: Gemfibrozil; 50 mg/kg; oral; Male; Sprague-Dawley
Rat [14] = assay: concentration in plasma after dosing; conditions: 4 h; dosed: Gemfibrozil; 4.29 mg/kg; oral; Male; Sprague-Dawley
Rat [15] = assay: concentration in plasma after dosing; conditions: 10 min; dosed: Gemfibrozil; 100 mg/kg; oral; Male; Sprague-Dawley
Rat [16] = assay: concentration in plasma after dosing; conditions: 2 h; dosed: Gemfibrozil; 100 mg/kg; oral; Male; Sprague-Dawley
Rat [17] = assay: concentration in plasma after dosing; conditions: 0.25 h; dosed: Gemfibrozil; 100 mg/kg; oral; Male; Sprague-Dawley
Rat [18] = assay: concentration in plasma after dosing; conditions: 2 h; dosed: Gemfibrozil; 50 mg/kg; oral; Male; Sprague-Dawley
Rat [19] = assay: concentration in plasma after dosing; conditions: 0.5 h; dosed: Perfluorohexanoic Acid; 80 mg/kg; oral; Male; Harlan Sprague Dawley
Rat [20] = assay: concentration in brain after dosing; conditions: 0.5 h; dosed: Perfluorohexanoic Acid; 80 mg/kg; oral; Male; Harlan Sprague Dawley
Rat [21] = assay: concentration in plasma after dosing; conditions: dosed: Perfluorohexanoic Acid, 80 mg/kg, oral, Male, Harlan Sprague Dawley
Rat [22] = assay: concentration in plasma after dosing; conditions: 1.5 h; dosed: Perfluorohexanoic Acid; 40 mg/kg; iv; Male; F344
Rat [23] = assay: concentration in kidney after dosing; conditions: 3 h; dosed: Perfluorohexanoic Acid; 80 mg/kg; oral; Female; Harlan Sprague Dawley
Rat [24] = assay: concentration in liver after dosing; conditions: 3 h; dosed: Perfluorohexanoic Acid; 80 mg/kg; oral; Female; Harlan Sprague Dawley
Rat [25] = assay: concentration in brain after dosing; conditions: 1 h; dosed: Perfluorohexanoic Acid; 80 mg/kg; oral; Male; Harlan Sprague Dawley
Rat [26] = assay: concentration in plasma after dosing; conditions: 1.5 h; dosed: Perfluorohexanoic Acid; 40 mg/kg; iv; Male; F344; remark: listed apart in the source
Rat [27] = assay: concentration in plasma after dosing; conditions: dosed: Perfluorohexanoic Acid, 40 mg/kg, iv, Male, F344
Rat [28] = assay: concentration in kidney after dosing; conditions: 24 h; dosed: Perfluorooctane Sulfonate; 20 mg/kg; oral; Male; Harlan Sprague Dawley
Rat [29] = assay: concentration in plasma after dosing; conditions: dosed: Perfluorooctane Sulfonate, 2 mg/kg, iv, Female, Harlan Sprague-Dawley
Rat [30] = assay: concentration in liver after dosing; conditions: 24 h; dosed: Perfluorooctane Sulfonate; 20 mg/kg; oral; Female; F344
Rat [31] = assay: concentration in liver after dosing; conditions: 6 h; dosed: Perfluorooctane Sulfonate; 20 mg/kg; oral; Male; Harlan Sprague Dawley
Rat [32] = assay: concentration in brain after dosing; conditions: 1848 h; dosed: Perfluorooctane Sulfonate; 20 mg/kg; oral; Female; F344
Rat [33] = assay: concentration in kidney after dosing; conditions: 864 h; dosed: Perfluorooctane Sulfonate; 2 mg/kg; oral; Female; Harlan Sprague Dawley
Rat [34] = assay: concentration in liver after dosing; conditions: 6 h; dosed: Perfluorooctane Sulfonate; 20 mg/kg; oral; Female; F344
Rat [35] = assay: concentration in liver after dosing; conditions: 6 h; dosed: Perfluorooctane Sulfonate; 2 mg/kg; oral; Female; Harlan Sprague Dawley
Rat [36] = assay: concentration in brain after dosing; conditions: 24 h; dosed: Perfluorooctane Sulfonate; 2 mg/kg; oral; Female; Harlan Sprague Dawley
Rat [37] = assay: concentration in plasma after dosing; conditions: 1848 h; dosed: Perfluorooctane Sulfonate; 2 mg/kg; oral; Female; Harlan Sprague Dawley
Rat [38] = assay: concentration in kidney after dosing; conditions: 1848 h; dosed: Perfluorooctane Sulfonate; 2 mg/kg; oral; Female; Harlan Sprague Dawley
Rat [39] = assay: concentration in kidney after dosing; conditions: 1848 h; dosed: Perfluorooctane Sulfonate; 20 mg/kg; oral; Female; F344
Rat [40] = assay: concentration in kidney after dosing; conditions: 24 h; dosed: Perfluorooctane Sulfonate; 20 mg/kg; oral; Female; F344

CC1CCCO1 (stereo unspecified) [2-Methyltetrahydrofuran]
Conditions | concentration in brain [µg/mL] | concentration in plasma [µg/mL]
Rat [1] | – | 0.0297
Rat [2] | 31 | –
Rat [3] | – | 57.4
Rat [4] | 8.26 | –
Rat [5] | 2.8 | –
Rat [6] | – | 13.9

O=C(O)CCC(F)(F)C(F)(F)C(F)(F)C(F)(F)C(F)(F)C(F)(F)C(F)(F)F [Fluorotelomer acid 7+3]
concentration in plasma [ng/mL]
Conditions | 0.25 h | 1 h | 24 h
Rat [7] | – | 650 | 210
Rat [11] | 37 | – | 183

Conditions | concentration in brain [ng/g] | concentration in liver [ng/g]
Rat [8] | 160 | –
Rat [9] | – | 5690
Rat [10] | 252 | –

Cc1ccc(C)c(OCCCC(C)(C)C(=O)O)c1 [Gemfibrozil]
Conditions | concentration in plasma [µg/mL]
Rat [12] | 4.64
Rat [13] | 0.754
Rat [14] | 0.596
Rat [15] | 130
Rat [16] | 5.12
Rat [17] | 72.3
Rat [18] | 1.97

O=C(O)C(F)(F)C(F)(F)C(F)(F)C(F)(F)C(F)(F)F [Perfluorohexanoic Acid]
Conditions | concentration in brain [ng/g] | concentration in kidney [ng/g] | concentration in liver [ng/g] | concentration in plasma
Rat [19] | – | – | – | 151 µg/mL
Rat [20] | 2500 | – | – | –
Rat [22] | – | – | – | 8490 ng/mL
Rat [23] | – | 71400 | – | –
Rat [24] | – | – | 8200 | –
Rat [25] | 2830 | – | – | –
Rat [26] | – | – | – | 320 ng/mL

concentration in plasma [ng/mL]
Conditions | 0.25 h | 6 h | 24 h
Rat [21] | 91200 | – | 239
Rat [27] | 19100 | 2380 | –

O=S(=O)([O-])C(F)(F)C(F)(F)C(F)(F)C(F)(F)C(F)(F)C(F)(F)C(F)(F)C(F)(F)F [Perfluorooctane Sulfonate]
Conditions | concentration in brain [ng/g] | concentration in kidney [ng/g] | concentration in liver [ng/g] | concentration in plasma [ng/mL]
Rat [28] | – | 82400 | – | –
Rat [30] | – | – | 160000 | –
Rat [31] | – | – | 204000 | –
Rat [32] | 1910 | – | – | –
Rat [33] | – | 3420 | – | –
Rat [34] | – | – | 169000 | –
Rat [35] | – | – | 19800 | –
Rat [36] | 800 | – | – | –
Rat [37] | – | – | – | 966
Rat [38] | – | 980 | – | –
Rat [39] | – | 22700 | – | –
Rat [40] | – | 127000 | – | –

Rat [29]
Conditions | concentration in plasma [ng/mL]
1 h | 4320
192 h | 3170
2376 h | 542
